The results in this text go back to patent US8524911B2, “3-arylamino pyridine derivatives” (Merck Serono SA, priority 2004, dated 2013).

Test [1] deals with human MEK1 (Homo sapiens, UniProt Q02750). As to the kind of experiment: MEK-1 Enzyme Assay (LANCE-HTRF). Type of test: biochemical. The note with it: 100 nM MEK1, 15 μM ATP, 300 nM ERK2, two hours; read-out: MEK inhibition. The procedure: Assay 1: MEK-1 Enzyme Assay (LANCE-HTRF)
The activity of the compounds of the present invitation may be determined by the following procedure; Inhibition of human MEK1 kinase activity was monitored with a homogenous, fluorescence based assay. The assay uses time resolved fluorescence resonance energy transfer to probe for phosphorylation of ERK1 by MEK1. The assay is carried out in low volume 96 well microtiterplates. […] After two hours, 5 nM Europium-anti-PY20 (Perkin Elmer) and 50 nM Anti-GST-Allophycocyanin (CisBio) in buffer containing 50 mM EDTA and 0.05% BSA are added and the reaction incubated for one hour in the dark. Time-resolved fluorescence is measured using a LJL-Analyst (Molecular Devices) with an excitation wavelength of 340 nm and an emission wavelength of 665 nm. The final concentration of DMSO is 2%.
A general note: Time-resolved FRET reads energy transfer from a long-lived donor to a nearby acceptor.

For test [2], the system named is Murine colon C26 cells. In words: Tumor cell proliferation assay (ATP Lite), C26. The class given is cell-based. The note with it: Mus musculus, 96 h, 4 days. Here is the method:
(§1) Assay 2: Tumor Cell Proliferation Assays (ATP Lite)
(§2) Murine colon C26, human melanoma A375 and MeI5 or human pancreatic MiaPaCa-2 cells were plated in 96 well Corning white plates (1500 cells/well for C26, and 2000 cells/well for A375, and MiaPaCa-2) and cultured overnight at 37° C. in 5% CO2. Inhibitors were serially diluted in 100% DMSO and subsequently added to cells to reach a final concentration of 0.25% DMSO. The cells were incubated for 4 days in the presence of test compounds in cell growth media (DMEM with 10% fetal bovine serum, 2 mM glutamine for C26, and MiaPaCa-2, and RPMI with 10% fetal bovine serum, 2 mM glutamine for A375). Cell proliferation was quantitated using the ATP lite cell proliferation kit (Packard). Columns 4-6 show the concentration of compounds required to induce 50% cell death (IC50 in μM) of […]. With “+” meaning 3 μM<IC50≦10 μM and “++” IC50≦3 μM and “n.d.” means not determined. Few compounds were also tested on human melanoma cell MeI5.

For test [3], the system named is human melanoma A375 cells. In words: Tumor cell proliferation assay (ATP Lite), A375. Type of test: cell-based. The settings on record: A-375, 96 h, 4 days. Here is the method: as §1, §2
Test [4] has as its system human pancreatic MiaPaCa-2 cells. In words: Tumor cell proliferation assay (ATP Lite), MiaPaCa-2. Type of test: cell-based. The note with it: MIA PaCa-2, 96 h, 4 days. Here is the method: as §1, §2

pIC50: −log10 of the molar value. Some results are limits rather than exact numbers.

human MEK1, sequence (Q02750 whole entry): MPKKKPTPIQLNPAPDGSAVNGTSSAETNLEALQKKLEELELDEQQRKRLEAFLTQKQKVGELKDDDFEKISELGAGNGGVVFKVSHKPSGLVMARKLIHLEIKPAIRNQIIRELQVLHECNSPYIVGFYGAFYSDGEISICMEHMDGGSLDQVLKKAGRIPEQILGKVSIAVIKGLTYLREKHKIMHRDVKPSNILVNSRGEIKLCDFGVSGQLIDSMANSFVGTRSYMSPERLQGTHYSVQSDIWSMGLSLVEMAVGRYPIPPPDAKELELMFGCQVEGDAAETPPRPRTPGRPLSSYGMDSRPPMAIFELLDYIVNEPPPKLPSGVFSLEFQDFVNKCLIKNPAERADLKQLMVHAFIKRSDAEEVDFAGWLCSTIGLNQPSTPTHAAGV

In the case of `COc1cccc(C(=O)NNC(=O)c2ccncc2Nc2ccc(I)cc2F)c1` [Example 55, 3-[(2-fluoro-4-iodophenyl)amino]-N′-(3-methoxybenzoyl)-isonicotinohydrazide], the pIC50 in test [1] is more than 6.00. Further, the IC50 in test [2] is 3 to 10 µM; in test [3] it was not above 3 µM; in test [4] it was 3 to 10 µM.
With `CC(O)CNC(=O)c1ccncc1Nc1ccc(I)cc1F` (centres unmarked) [Example 14, 3-[(2-fluoro-4-iodophenyl)amino]-N-(2-hydroxypropyl)-isonicotinamide], the pIC50 in test [1] is more than 6.00. The IC50 in test [2], in test [3] and in test [4] was not above 3 µM throughout.
`NC(=O)c1ccncc1Nc1ccc(I)cc1Cl` [Example 11, 3-[(2-chloro-4-iodophenyl)amino]isonicotinamide]: the pIC50 in test [1] was more than 6.00. Moreover, the IC50 in test [2], in test [3] and in test [4] was not above 3 µM each time.
As to `NC(=O)c1ccncc1Nc1ccc(I)cc1F` [Example 12, 3-[(2-fluoro-4-iodophenyl)amino]isonicotinamide], the pIC50 in test [1] is more than 6.00. In addition, the half-inhibitory concentration (IC50) in test [2], in test [3] and in test [4] was not above 3 µM throughout.
`O=C(NNc1cc(C(F)(F)F)cc(C(F)(F)F)c1)c1ccncc1Nc1ccc(I)cc1F` [Example 101]: the pIC50 in test [1] is more than 6.00. Moreover, the IC50 in test [2] was 3 to 10 µM; in test [3], not above 3 µM; in test [4], 3 to 10 µM.
In the case of `NNC(=O)c1ccncc1Nc1ccc(I)cc1F` [Example 51, 3-[(2-fluoro-4-iodophenyl)amino]isonicotinohydrazide], the pIC50 in test [1] was more than 6.00. Besides, the IC50 in test [2] is 3 to 10 µM; in test [3], not above 3 µM; in test [4], not above 3 µM.
For `CCONC(=O)c1ccncc1Nc1ccc(I)cc1Cl` [Example 76], the pIC50 in test [1] was more than 6.00. The half-inhibitory concentration (IC50) in test [2] is 3 to 10 µM; in test [3], not above 3 µM; in test [4] it was 3 to 10 µM.
As for `O=C(NNc1ccccn1)c1ccncc1Nc1ccc(I)cc1F` [Example 49, 3-[(2-fluoro-4-iodophenyl)amino]-N′-pyridin-2-ylisonicotino-hydrazide], the pIC50 in test [1] was more than 6.00. The 50% inhibitory concentration (IC50) in test [2], in test [3] and in test [4] was not above 3 µM each time.
On to `O=C(NCCCN1CCOCC1)c1ccncc1Nc1ccc(I)cc1F` [Example 35, 3-[(2-fluoro-4-iodophenyl)amino]-N-(3-morpholin-4-ylpropyl)-isonicotinamide], for which, in test [1], the pIC50 is more than 6.00. Further, the IC50 in test [2], in test [3] and in test [4] was not above 3 µM throughout.
`CCNC(=O)c1ccncc1Nc1ccc(I)cc1F` [Example 18, N-ethyl-3-[(2-fluoro-4-iodophenyl)amino]isonicotinamide]: the pIC50 in test [1] was more than 6.00. Also, the 50% inhibitory concentration (IC50) in test [2], in test [3] and in test [4] was not above 3 µM throughout.
On to `O=C(NCCCCO)c1ccncc1Nc1ccc(I)cc1F` [Example 39, 3-[(2-fluoro-4-iodophenyl)amino]-N-(4-hydroxybutyl)-isonicotinamide], for which the pIC50 in test [1] is more than 6.00. Moreover, the IC50 in test [2], in test [3] and in test [4] was not above 3 µM each time.
Turning to `Cc1cccc(NNC(=O)c2ccncc2Nc2ccc(I)cc2F)c1` [Example 90, 3-[(2-fluoro-4-iodophenyl)amino]-N′-(3-methylphenyl)isonicotino-hydrazide], the pIC50 in test [1] was more than 6.00. Also, the half-maximal inhibitory concentration (IC50) in test [2], in test [3] and in test [4] was not above 3 µM each time.
Consider `CC(C)(C)ONC(=O)c1ccncc1Nc1ccc(I)cc1Cl` [Example 65], for which the pIC50 in test [1] was more than 6.00. Besides, the IC50 is 3 to 10 µM in test [2], not above 3 µM in test [3] and 3 to 10 µM in test [4].
On to `CCOC(CNC(=O)c1ccncc1Nc1ccc(I)cc1F)OCC` [Example 98, N-(2,2-diethoxyethyl)-3-[(2-fluoro-4-iodophenyl)amino]-isonicotinamide], for which the pIC50 in test [1] is more than 6.00. The 50% inhibitory concentration (IC50) in test [2] is 3 to 10 µM; in test [3] it was not above 3 µM; in test [4], 3 to 10 µM.
For the compound `O=C(NOC[C@H](O)CO)c1ccnc(Cl)c1Nc1ccc(I)cc1F` [Example 43, 2-Chloro-N-[(2R)-2,3-dihydroxy-propoxy]-3-(2-fluoro-4-iodo-phenylamino)-isonicotinamide], in test [1], the pIC50 was more than 6.00. Moreover, the IC50 is 3 to 10 µM in test [2], not above 3 µM in test [3] and 3 to 10 µM in test [4].
As for `O=C(NCCOc1ccccc1)c1ccncc1Nc1ccc(I)cc1F` [Example 26, 3-[(2-fluoro-4-iodophenyl)amino]-N-(2-phenoxyethyl)-isonicotinamide], the pIC50 in test [1] was more than 6.00. The figures for the 50% inhibitory concentration (IC50) in test [2], in test [3] and in test [4] were 3 to 10 µM, not above 3 µM and 3 to 10 µM, respectively.
In the case of `O=C(NC1CC1)c1ccncc1Nc1ccc(I)cc1F` [Example 47, N-cyclopropyl-3-[(2-fluoro-4-iodophenyl)amino]isonicotinamide], in test [1], the pIC50 was more than 6.00. Moreover, the IC50 in test [2], in test [3] and in test [4] was not above 3 µM each time.
Take `O=C(NCCN1CCOCC1)c1ccncc1Nc1ccc(I)cc1F` [Example 13, 3-(2-Fluoro-4-iodo-phenylamino)-N-(2-morpholin-4-yl-ethyl)-isonicotinamide]: the pIC50 in test [1] is more than 6.00. The IC50 in test [2], in test [3] and in test [4] was not above 3 µM each time.
Regarding `O=C(NN1CCCCC1)c1ccncc1Nc1ccc(I)cc1F` [Example 19, 3-[(2-fluoro-4-iodophenyl)amino]-N-piperidin-1-ylisonicotinamide], the pIC50 in test [1] was more than 6.00. Moreover, the IC50 in test [2] is 3 to 10 µM; in test [3], not above 3 µM; in test [4] it was not above 3 µM.
For the compound `O=C(NCCCN1CCCC1=O)c1ccncc1Nc1ccc(I)cc1F` [Example 30, 3-[(2-fluoro-4-iodophenyl)amino]-N-[3-(2-oxopyrrolidin-1-yl)propyl]isonicotinamide], the pIC50 in test [1] is more than 6.00. The IC50 in test [2], in test [3] and in test [4] was not above 3 µM throughout.
With `CONC(=O)c1ccncc1Nc1ccc(I)cc1Cl` [Example 80, N-methoxy-3-(2-chloro-4-iodo-phenylamino)-isonicotinamide], the pIC50 in test [1] was more than 6.00. Also, the IC50 was not above 3 µM in test [3] and 3 to 10 µM in test [4].
`CC1(C)OC[C@H](CONC(=O)c2cc(Br)ncc2Nc2ccc(I)cc2F)O1` [Example 69, 2-bromo-N-{[(4R)-2,2-dimethyl-1,3-dioxolan-4-yl]methoxy}-5-[(2-fluoro-4-iodophenyl)amino]isonicotinamide]: the pIC50 in test [1] was more than 6.00. Besides, the concentration for half-maximal inhibition (IC50) in test [2] was 3 to 10 µM; in test [3], not above 3 µM.
With `COCCNC(=O)c1cc(Br)ncc1Nc1ccc(I)cc1F` [Example 87, 2-Bromo-5-(2-fluoro-4-iodo-phenylamino)-N-(2-methoxy-ethyl)-isonicotinamide], the pIC50 in test [1] was more than 6.00. For the same compound, the results for the half-maximal inhibitory concentration (IC50) in test [3] and in test [4] were not above 3 µM and 3 to 10 µM, respectively.

The term IC50 denotes the midpoint of a concentration-inhibition curve. The low end stands for inhibition by little substance, the high end for a need for much substance.
